In patent US4992439A, “Pyridazine carboxylic acids and esters” (Bristol-Myers Squibb Company, priority 1990, dated 1991):
Values after ≈ are worked out from the molar mass of the structure shown.

These compounds were tested on human platelet aggregation (ADP-induced). Settings: human platelet rich plasma; ADP final concentration 0.5 mcg/mL; compounds in DMSO; read-out: Inhibition of Human Platelet Aggregation, IC50 vs. ADP.
Assay type: cell-based

Row | IC50 [µg/mL] | Compound
1 | 21 (≈ 50.2 µM) | COC(=O)CCCCCCCCn1nc(-c2ccccc2)c(-c2ccccc2)cc1=O [Example 1, Methyl 6-oxo-3,4-diphenyl-1(6H)-pyridazinenonanoate]
2 | 0.75 (≈ 1.7 µM) | COC(=O)COc1cccc(CCn2nc(-c3ccccc3)c(-c3ccccc3)cc2=O)c1 [Example 5, Methyl [3-[2-(1,6-dihydro-6-oxo-3,4-diphenyl-1-pyridazinyl)ethyl]phenoxy]acetate]
3 | 7.7 (≈ 19 µM) | COC(=O)CCCCCCCn1nc(-c2ccccc2)c(-c2ccccc2)cc1=O [Example 3, Methyl 6-Oxo-3,4-diphenyl-1(6H)pyridazinyloctanoate]
4 | 1 (≈ 2.34 µM) | O=C(O)COc1cccc(CCn2nc(-c3ccccc3)c(-c3ccccc3)cc2=O)c1 [Example 6, [3-[2-(1,6-Dihydro-6-oxo-3,4-diphenyl-1-pyridazinyl)ethyl]phenoxy]acetic Acid]
5 | 2.9 (≈ 7.17 µM) | O=C(O)CCCCCCCCn1nc(-c2ccccc2)c(-c2ccccc2)cc1=O [Example 2, 6-Oxo-3,4-diphenyl-1(6H)-pyridazinenonanoic acid]
6 | 1.6 (≈ 4.1 µM) | O=C(O)CCCCCCCn1nc(-c2ccccc2)c(-c2ccccc2)cc1=O [Example 4, 6-Oxo-3,4-diphenyl-1(6H)-pyridazinyloctanoic Acid]
